Test results taken from US20260166127A1, “USE OF ANALOG OF C-TYPE NATRIURETIC PEPTIDE FOR THE TREATMENT OF FGFR-RELATED BONE REPAIR AND BONE FORMATION IMPAIRMENT” (INSTITUT NATIONAL DE LA SANTÉ ET DE LA RECHERCHE MÉDICALE, priority 2021, published 2026).

Assays:
[1] = tested on: HCH mouse model (Fgfr3^N534K/+), mandible bone repair; experiment: Non-stabilized mandibular fracture repair in HCH mice treated with BMN111 (microCT, repair grade); format: in vivo
Description: Mandibular bone repair was studied in the HCH mouse model (Fgfr3^N534K/+). The experiments were performed in adult animals at 6 weeks of age, and mice were euthanized at 4 key points: during bone repair (10, 14, 21 days post fracture), and at the end of the normal bone healing process i.e. at 28 days post fracture.
Vertical mandibular fractures were performed in the ascending ramus region in Fgfr3^N534K/+ and Fgfr3^+/+ mice. This is a non-stabilized mandibular fracture protocol allowing to analyze the endochondral bone repair process.
Four batches (n=100) of Fgfr3^N534K/+ and Fgfr3^+/+ mandible fractures corresponding to different key stages of repair were studied (day 10, day 14, day 21, day 28). Using collagen type II (proliferative cartilage), type X (hypertrophic cartilage) and type I (bone) immunolabelling, we observed that the endochondral process is disturbed, we noted a delayed cartilage resorption, a reduction in the size of hypertrophic chondrocytes area and a defect in bone formation within the repair callus in Fgfr3^N534K/+ compared to Fgfr3^+/+. […] We observed the presence of pseudarthrosis (fibrosis in the callus) in Fgfr3^N534K/+ mice whereas we observed 100% of bone in Fgfr3^+/+ callus. Considering the quality of the newly formed bone at day 28, we defined four grades of repair and classified the mice according to their repair grade (from 1 to 4). The defective repair is significant in Fgfr3^N534K/+ compared to Fgfr3^+/+ (FIG. 1C).
In order to analyze the bone microarchitecture, we performed microCT scans. We observed an alteration in the microarchitecture of callus formation from day10 to day 28 Fgfr3^N534K/+ compared to Fgfr3^+/+.
HCH mice (Fgfr3^N534K/+) were treated with BMN111 (subcutaneous injection at 0.8 mg/kg, 3 times per week) from day 0 (facture of the mandible) to day 14 or day 28. The bone repair analyses were evaluated by microCT scans at day 14 and day 28 post fracture. […] BV/TV is increased at day 14 (+29%; p<0.005) in treated HCH mice (n=8) compared to untreated HCH mice (n=9). BV/TV is increased at day 28 post fracture and (+24% p<0.005) in the HCH mice (n=9) compared to the untreated HCH mice (n=14) (FIGS. 1A and 1B).

[2] = tested on: mouse model (Fgfr3^Y367C/+); settings: human ACH cells and Fgfr3^Y367C/+ mouse model; Lorget et al 2012; cited from earlier work
[3] = day 28 grade repair, treated HCH mice
[4] = microCT, day 28 post fracture, treated (n=9) vs untreated (n=14) HCH mice, BMN111 s.c. 0.8 mg/kg 3 times per week, p<0.005

Substance: Vosoritide (PGQEHPNARKYKGANKKGLSKGCFGLKLDRIGSMSGLGC; chains of the INN, looked up) [BMN111, CNP analog, NPR2 agonist; formula C176H290N56O51S3, CAS Number 1480724-61-5]
- Complete bone healing (grade 1), mice observed [1, 3]: 7/9
- Restoration of bone continuity, but presence of mild bone defects (grade 2), mice observed [1, 3]: 2/9
- BV/TV increase ([1]; microCT, day 14 post fracture, treated (n=8) vs untreated (n=9) HCH mice, BMN111 s.c. 0.8 mg/kg 3 times per week, p<0.005): +29%
- callus volume ([1]; microCT, day 14 post fracture, treated vs untreated HCH mice, BMN111 s.c. 0.8 mg/kg 3 times per week): unchanged
- BV/TV increase [1, 4]: +24%
- decrease of the volume of the callus [1, 4]: −30.9%
- pseudarthrosis in the callus ([1]; treated HCH mice, mandible fracture callus): without pseudarthrosis
- effect on long bone growth and the skull [2]: beneficial effect
